The text below walks through data of patent US5126057A, “Disinfecting with N,N'-dihaloimidazolidin-4-ones” (Auburn Research Foundation, priority 1991, dated 1992).

The data set can be described thus: Prevention of the growth of algae in water by Compound 1. Type of data set: cell-based. As to conditions: algal aquarium, pH 6.8, start 6.14 mg per liter, read-out: Percent Total Potential Positive Chlorine Remaining. Here is the method: Two 10 gallon aquariums were each filled with 35 liters of Bristol's solution at pH 6.8 as described in example 16. To aquarium A was added 6.14 milligrams per liter total potential positive chlorine from 0.638 grams of 1,3-dichloro-2,2,5,5-tetramethylimidazolidin-4-one (Compound 1) as prepared in example 1. Aquarium B was used as a control with no halogenated compound added. Then 5 milliliters of an inoculum containing the algae Oscillatoria lutea, Anabaena cylindrica, and Chlorella pyrenoidosa with an absorbance of 0.14 at 750 nanometers was added to each aquarium. Constant aeration and illumination as described in example 16 were provided throughout the experiment. The laboratory temperature varied between 21° and 24° C. during the course of the experiment. Both aquariums were sampled periodically such that the absorption at 750 nanometers could be measured with a Milton Roy Spectronic 301 spectrophotometer. Aquarium A was also sampled for total potential positive chlorine using standard iodometric titration.

Regarding `CC1(C)C(=O)N(Cl)C(C)(C)N1Cl` [Compound 1, 1,3-dichloro-2,2,5,5-tetramethylimidazolidin-4-one], the share remaining at 24 h (day 1) worked out at 70.1%. Under “day 4”, the share remaining at 96 h amounted to 53.4%. The share remaining at 120 h (day 5) came out at 52.1%. Besides, the amount remaining at 144 h (day 6) came out at 51%. Moreover, the share remaining at 168 h (day 7) amounted to 49.5%. Besides, the share remaining at 192 h (day 8) came out at 48.9%. Moreover, for the setting “day 11”, the share remaining at 264 h was found to be 45.8%. Also, the amount remaining at 288 h (day 12) was found to be 45.6%. For the same molecule, the fraction remaining at 312 h (day 13) came to 44.8%. Where the note is “day 14”, the share remaining at 336 h was 43.3%. Besides, the fraction remaining at 360 h (day 15) was found to be 44.8%. The amount remaining at 432 h (day 18) stood at 41.9%.

As usually defined, the fraction remaining is the share of the starting amount still present when the sample was taken.
